Literature values, collected in patent US20040266797A1, “Use of potent,selective and non toxic c-kit inhibitors for treating tumor angiogensis” (priority 2001, published 2004).

Tested on: tumor growth
Settings: inhibiting mast cell degranulation

Q: With `O=C([O-])c1cc(=O)c2c(OCC(O)COc3cccc4oc(C(=O)[O-])cc(=O)c34)cccc2o1.[Na+].[Na+]` [disodium cromoglycate] as the compound, how does the tumor growth read?
A: significantly depresse tumor growth
